Laboratory results from the METLIN SMRT retention time set (Domingo-Almenara et al. 2019).

Test: gradient 5% acetonitrile 3 min, to 50% in 2 min, to 85% in 15 min, held 3 min, 100 µL/min
Conditions: column: Zorbax Extend-C18 2.1 x 50 mm; eluents: water / acetonitrile, 0.1% formic acid
Method in brief: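 Each retention time is based on an adduct peak selected computationally and verified by manual inspection. Measurements used HPLC–quadrupole time-of-flight mass spectrometry in positive and negative ionization mode on mixtures of ~100 pure standards. Chromatography ran on a Zorbax Extend-C18 column (2.1 × 50 mm, 1.8 μm) at 100 μL/min with water and acetonitrile, each containing 0.1% formic acid, and dead and dwell volumes of 40 μL and 900 μL.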

Row | SMILES | RP-LC retention time [s]
1 | c1ccc(-c2noc(-c3ccccc3OC3CCNC3)n2)cc1 (stereo unspecified) | 684
2 | Cc1c(C(C)(C(=O)O)c2c(C)n(C)c3ccccc23)c2ccccc2n1C | 677
3 | Cc1c(CN2CCSCC2)nnn1-c1ccc(F)cc1 | 610
4 | Cc1cccc(NS(=O)(=O)c2cn(CC(C)C)c3ncccc23)c1 | 960
5 | CCC(=O)N1c2ccc(S(=O)(=O)CCC(=O)NCc3ccc(N(C)C)cc3)cc2CC1C (stereo unspecified) | 617
6 | COc1ccc(Oc2cc3c(cc2NC(=O)Nc2ccccc2)n(C)c(=O)n3C)cc1 | 893
7 | CCCCNC(=O)Cn1cccc(-c2nc(-c3ccc(F)cc3)no2)c1=O | 790
8 | CC(=O)N1c2ccc(S(=O)(=O)N3CCCCC3)cc2CC1C(=O)NCCCN1CCCCC1 (stereo unspecified) | 577
9 | Cc1ccc(-c2cn3ccccc3n2)cc1NS(=O)(=O)c1ccccc1 | 630
10 | COc1ccc2c(c1)C1(CCN(S(=O)(=O)c3ccc(C#N)cc3)C1)C(=O)N2 (stereo unspecified) | 797
11 | Cc1ccccc1-c1noc(-c2cccnc2N2CCN(c3ccccc3)CC2)n1 | 1410
12 | O=C1CCCc2cc(S(=O)(=O)N3CCC(C(=O)N4CCC5(CC4)OCCO5)CC3)ccc2N1 | 662
13 | CC(=O)Nc1ccc(Br)cc1C(=O)c1ccccc1 | 840
14 | CCCS(=O)(=O)N1CCN(c2ccc(-n3cccn3)nn2)CC1 | 694
15 | CCOC(=O)c1c(C)[nH]c(C(=O)CC(=O)OC)c1C | 696
16 | O=C1NC(=O)/C(=C/c2ccc(-c3ccc(F)cc3O)o2)S1 | 923
17 | Cc1ccc(-c2nnc(Cc3nc(-c4cccc(C(F)(F)F)c4)no3)o2)cc1F | 1180

Further lines, results first:

Row | RP-LC retention time [s] | SMILES
18 | 672 | Cc1cccc(NC(=O)N2CCCC(Cn3cnc4cccnc43)C2)c1C (stereo unspecified)
19 | 787 | CC(C)NC(=O)c1ccc(OCC2CCCN(C(=O)C(C)C)C2)cc1 (stereo unspecified)
20 | 746 | O=C(c1cccc2c1CCN2C(=O)C1CC1)N1CCCCC1
21 | 869 | CCc1nc(-c2csc(S(=O)(=O)N3CCCC(C(=O)Nc4cccc(C)n4)C3)c2)no1 (stereo unspecified)
22 | 705 | CCOc1ccccc1NC(=O)CSc1ccc(N2CCCC(C(=O)NC3CC3)C2)nn1 (stereo unspecified)
23 | 603 | CCOC(=O)c1noc2ncnc(NCC3CCN(Cc4cccc(Cl)c4)CC3)c12
24 | 784 | O=C(CSc1n[nH]c(-c2ccccc2)n1)NC1CCCCC1
25 | 942 | CCC(Oc1ccc(-c2cnc3ccccc3n2)cc1)C(=O)N1CCN(c2ncccn2)CC1 (stereo unspecified)
26 | 1010 | O=C(CSc1cc(N2CCN(c3ccccc3F)CC2)ncn1)N1CCc2ccccc21
27 | 672 | CCOc1ccc(-c2ccc(=O)n(CCNC(=O)c3sc(C)nc3C)n2)cc1
28 | 794 | COC(=O)CNC(=O)C1COc2ccc(NC(=O)c3ccc(Br)cc3)cc2C1 (stereo unspecified)
29 | 734 | O=C(Nc1cc(-c2cccs2)nn1CCO)C1(c2ccccc2)CCOCC1
30 | 681 | COc1ccc(Cn2nc3ccc(S(=O)(=O)N4CCCCCC4)cn3c2=O)cc1F
31 | 586 | CCOC(=O)C1CCN(CC(=O)Nc2oc3ccccc3c(=O)c2-c2ccccc2)CC1
32 | 813 | CCOC(=O)c1ccc(N2C=C(C(=O)N3CCCC3)S(=O)(=O)c3ccccc32)cc1
33 | 884 | CC1=C(c2ccc(C)c(C)c2)S(=O)(=O)N=C1N1CCC(C(=O)NCCc2ccco2)CC1
34 | 569 | CCN1CCN(C(=O)c2c(OCC3CC3)cc(=O)n3c2CCCCC3)CC1
35 | 806 | CCc1ccc(NC(=O)C2CCN(S(=O)(=O)c3ccc4c(c3)S(=O)(=O)N=CN4)CC2)cc1
36 | 822 | CCCN1C(=O)c2c(C(=O)Nc3ccccc3Cl)ncn2CC1(C)C(=O)NC1CCCC1 (stereo unspecified)
